Data on 14 compounds can be found in patent US20260325561A1, “4'-SUBSTITUTED NUCLEOSIDES AND NUCLEOTIDES AS ANTIVIRAL AGENTS” (THE SCRIPPS RESEARCH INSTITUTE, priority 2023, published 2026).

In data set [1] the test system is SARS-CoV-2. The data set is described as follows: microbe, parasite or virus in culture. It counts as cell-based, SARS-CoV-2 strain USA-WA1/2020. The note with it: Severe acute respiratory syndrome coronavirus 2, HeLa-ACE2, 24 h, read-out: SARS-CoV-2 / HeLa-ACE2 EC50.
A short description of data set [2]: in vitro. Particulars: human, hepg2 cells.
Data set [3] in a line: in vitro. The note with it: human, hela-ace2 cells.
The subject of data set [4] is HRV 14. The data set is described as follows: microbe, parasite or virus in culture. It counts as cell-based, Human Rhinovirus 14 strain 1059. The note with it: Rhinovirus B, H1-HeLa, 48 h, read-out: HRV / H1 HeLa B 14 EC50.
The nature of data set [5]: in vitro. The note with it: human, hep2 cells.
Data set [6] is described as follows: in vitro. Particulars: human, h1 hela cells.
Data set [7] has as its system DENV-2. The experiment in a line: microbe, parasite or virus in culture. Particulars: Dengue virus, DENV2, HepG2, 24 h, read-out: DENV-2 / HepG2 EC50. It is filed as cell-based, DENV-2 16681.
The subject of data set [8] is RSV A2. The data set is described as follows: microbe, parasite or virus in culture. It is filed as cell-based. The note with it: human respiratory syncytial virus, HEp-2, 72 h, read-out: RSV A2 / Hep2 EC50.

SMILES strings stand for the structures.

As usually defined, the CC50 is the concentration that lowers cell viability or growth by half. In the case of `CNc1nc(N)nc2c1ncn2[C@@H]1O[C@](F)(COP(=O)(N[C@@H](C)C(=O)OC(C)C)Oc2ccccc2)[C@@H](O)[C@]1(F)Cl` (single isomer, unassigned) [Example 58], the EC50 in data set [1] is above 10 µM; in data set [4], 0.1 to 1 µM; in data set [7] it was 0.1 to 1 µM; in data set [8], above 10 µM. This compound had a CC50 at 72 h in data set [2] above 99 µM. In addition, the 50% cytotoxic concentration (CC50) at 24 h in data set [3] was above 99 µM. Moreover, the cytotoxic concentration (CC50) in data set [5] and in data set [6] was above 99 µM throughout.

For the compound `CNc1nc(N)nc2c1ncn2[C@@H]1O[C@](F)(COP(=O)(N[C@@H](C)C(=O)OC(C)C)Oc2ccccc2)[C@@H](O)[C@]1(F)Cl` (single isomer, unassigned) [Example 59], the EC50 is above 10 µM in data set [1], 1 to 10 µM in data set [4], 1 to 10 µM in data set [7] and above 10 µM in data set [8]. For the same compound, in data set [2], the half-maximal cytotoxic concentration (CC50) at 72 h was above 99 µM. The CC50 at 24 h in data set [3] is above 99 µM. Besides, the CC50 in data set [5] and in data set [6] was above 99 µM each time.

In the case of `CO[C@]1(CO)O[C@@H](c2ccc3c(N)ncnn23)[C@](C)(O)[C@@H]1O` [Example 3, (2R,3S,4R,5S)-5-(4-aminopyrrolo[2,1-f][1,2,4]triazin-7-yl)-2-(hydroxymethyl)-2-methoxy-4-methyltetrahydrofuran-3,4-diol], the EC50 in data set [1], in data set [4], in data set [7] and in data set [8] was above 10 µM throughout. Moreover, the CC50 at 72 h in data set [2] was above 99 µM. In data set [3], this compound displayed a CC50 at 24 h above 99 µM. The CC50 in data set [5] and in data set [6] was above 99 µM in each case.

As to `[N-]=[N+]=N[C@]1(CO)C[C@@H](O)[C@H](n2ccc3c(N)ncnc32)O1` [Example 8, (2R,3R,5R)-2-(4-amino-7H-pyrrolo[2,3-d]pyrimidin-7-yl)-5-azido-5-(hydroxymethyl)tetrahydrofuran-3-ol], the EC50 in data set [1], in data set [4], in data set [7] and in data set [8] was above 10 µM in each case. This compound returned a cytotoxic concentration (CC50) at 72 h in data set [2] above 99 µM. Besides, in data set [3], the CC50 at 24 h was above 99 µM. Also, the CC50 in data set [5] and in data set [6] was above 99 µM throughout.

For the compound `C[C@]1(O)[C@H](c2ccc3c(N)ncnn23)O[C@@](CO)(N=[N+]=[N-])[C@H]1O` [Example 9, (2R,3S,4R,5S)-5-(4-aminopyrrolo[2,1-f][1,2,4]triazin-7-yl)-2-azido-2-(hydroxymethyl)-4-methyltetrahydrofuran-3,4-diol], the EC50 in data set [1], in data set [4], in data set [7] and in data set [8] was above 10 µM each time. The compound further showed a 50% cytotoxic concentration (CC50) at 72 h in data set [2] above 99 µM. For the same compound, the CC50 at 24 h in data set [3] was above 99 µM. The CC50 in data set [5] and in data set [6] was above 99 µM each time.

Regarding `Nc1ncnc2c1ccn2[C@@H]1O[C@](F)(CO)C[C@H]1O` [Example 11, (2R,3R,5R)-2-(4-amino-7H-pyrrolo[2,3-d]pyrimidin-7-yl)-5-fluoro-5-(hydroxymethyl)tetrahydrofuran-3-ol], the EC50 in data set [1], in data set [4], in data set [7] and in data set [8] was above 10 µM throughout. For the same compound, in data set [2], the CC50 at 72 h lay in the range of 10 to 99 µM. This compound registered a CC50 at 24 h in data set [3] above 99 µM. Further, the results for the CC50 in data set [5] and in data set [6] were above 99 µM and 10 to 99 µM, respectively.

As for `Nc1ncnc2c1ccn2[C@@H]1O[C@@](F)(CO)C[C@H]1O` [Example 12, (2R,3R,5S)-2-(4-amino-7H-pyrrolo[2,3-d]pyrimidin-7-yl)-5-fluoro-5-(hydroxymethyl)tetrahydrofuran-3-ol], the EC50 in data set [1], in data set [4], in data set [7] and in data set [8] was above 10 µM in each case. The compound also displayed a CC50 at 72 h in data set [2] above 99 µM. The compound further registered a CC50 at 24 h in data set [3] above 99 µM. Moreover, the values for the cytotoxic concentration (CC50) in data set [5] and in data set [6] were above 99 µM and 10 to 99 µM, respectively.

As for `CSc1nc(N)nc2c1ncn2[C@@H]1O[C@](F)(CO)[C@@H](O)[C@H]1O` [Example 28], the EC50 in data set [1] was above 10 µM; in data set [4], above 10 µM; in data set [7] it was 0.1 to 1 µM; in data set [8], 0.1 to 1 µM. The 50% cytotoxic concentration (CC50) at 72 h in data set [2] lay within 1 to 10 µM. The compound also returned a CC50 at 24 h in data set [3] of 1 to 10 µM. The 50% cytotoxic concentration (CC50) in data set [5] and in data set [6] was 1 to 10 µM each time.

For `N#Cc1cn([C@@H]2O[C@](F)(CO)[C@@H](O)[C@H]2O)c2nc[nH]c(=O)c12` [Example 37, 7-((2R,3R,4S,5S)-5-fluoro-3,4-dihydroxy-5-(hydroxymethyl)tetrahydrofuran-2-yl)-4-oxo-4,7-dihydro-3H-pyrrolo[2,3-d]pyrimidine-5-carbonitrile], the EC50 in data set [1], in data set [4], in data set [7] and in data set [8] was above 10 µM each time. The compound also displayed a cytotoxic concentration (CC50) at 72 h in data set [2] above 99 µM. In addition, the CC50 at 24 h in data set [3] was above 99 µM. Besides, the CC50 in data set [5] and in data set [6] was above 99 µM each time.

Take `Nc1ncnc2c1c(C(F)(F)F)cn2[C@@H]1O[C@](F)(CO)[C@@H](O)[C@H]1O` [Example 42, (2S,3S,4R,5R)-5-(4-amino-5-(trifluoromethyl)-7H-pyrrolo[2,3-d]pyrimidin-7-yl)-2-fluoro-2-(hydroxymethyl)tetrahydrofuran-3,4-diol]: the cytotoxic concentration (CC50) at 72 h in data set [2] is below 1 µM. Besides, the EC50 in data set [7] is below 0.1 µM.

As for `Cc1ncnc2c1ccn2[C@@H]1O[C@](F)(CO)[C@@H](O)[C@H]1O` [Example 53, (2S,3S,4R,5R)-2-fluoro-2-(hydroxymethyl)-5-(4-methyl-7H-pyrrolo[2,3-d]pyrimidin-7-yl)tetrahydrofuran-3,4-diol], the 50% cytotoxic concentration (CC50) at 72 h in data set [2] was in the range of 10 to 99 µM. Moreover, the EC50 is above 10 µM in data set [4], 1 to 10 µM in data set [7] and above 10 µM in data set [8]. Further, the cytotoxic concentration (CC50) in data set [5] and in data set [6] was above 99 µM in each case.

Compound `OC[C@@]1(F)O[C@@H](n2ccc3c(C4CC4)ncnc32)[C@H](O)[C@@H]1O` [Example 54, (2S,3S,4R,5R)-5-(4-cyclopropyl-7H-pyrrolo[2,3-d]pyrimidin-7-yl)-2-fluoro-2-(hydroxymethyl)tetrahydrofuran-3,4-diol] gave a CC50 at 72 h in data set [2] above 99 µM. For the same compound, the EC50 in data set [4], in data set [7] and in data set [8] was above 10 µM throughout. Further, the half-maximal cytotoxic concentration (CC50) in data set [5] and in data set [6] was above 99 µM each time.

Consider `Nc1ncnc2c1c(-c1nc3ccccc3s1)cn2[C@@H]1O[C@](F)(CO)[C@@H](O)C1(F)F` [Example 55, (2S,3R,5R)-5-(4-amino-5-(benzo[d]thiazol-2-yl)-7H-pyrrolo[2,3-d]pyrimidin-7-yl)-2,4,4-trifluoro-2-(hydroxymethyl)tetrahydrofuran-3-ol], for which, in data set [1], the EC50 was below 0.1 µM. In data set [3], this compound showed a CC50 at 24 h of 1 to 10 µM.

For the compound `CC(C)OC(=O)[C@H](C)NP(=O)(OC[C@@]1(F)O[C@@H](n2cnc3c(=O)[nH]c(N)nc32)C(F)(F)[C@@H]1O)Oc1ccccc1` (stereo partly drawn) [Example 61, isopropyl ((((2S,3R,5R)-5-(2-amino-6-oxo-1,6-dihydro-9H-purin-9-yl)-2,4,4-trifluoro-3-hydroxytetrahydrofuran-2-yl)methoxy)(phenoxy)phosphoryl)-L-alaninate], in data set [2], the cytotoxic concentration (CC50) at 72 h is above 99 µM. Also, the EC50 in data set [7] was above 10 µM.
